# According to patent US10792287B2, “Methods for treating mitochondrial diseases” (The Regents of the University of California, priority 2015, dated 2020):
# Structures can show the parent of a compound that is named as a salt. Where two headings read alike, the source gives them in different places.
# Legend:
# [1] = tested on: control osteosarcoma cells and LHON mutant (11778 G>A) cells; assay: Validation of complex I-driven ATP synthesis assay with substrates and inhibitors of mitochondrial complexes; assay type: cell-based; conditions: for mitochondrial ATP synthesis: inhibitor at 1 μM, malate/pyruvate substrates, permeabilized cells
# Excerpt: The data is presented as ATP synthesis rate+standard deviation from one representative experiment.
# LHON cybrids (11778 G>A) = assay: Complex I-driven ATP synthesis in rotenone-inhibited LHON mutant cybrids (luciferase-based, high-throughput screen and concentration-response); assay type: cell-based
# control healthy cybrid = assay: Mitochondrial copy number (MT-TL1/B2M ratio), control cybrids; assay type: cell-based; conditions: control cells; 24 hrs exposure
# Procedure: (§1) FIGS. 14A-14C illustrate the effect of drugs on the mitochondrial copy number. Difference of mitochondrial copy number between 11778 (G>A) mutant and control cybrids (FIG. 14A). Effect of zolpidem and papaverine on the control healthy cybrid mitochondrial copy number (FIG. 14B) and 11778 (G>A) mutant cybrid mitochondrial copy number (FIG. 14C). Cells were treated with either vehicle or one of the drugs at specified concentration for 24 h. The cells were harvested after 24 h and the ratio between MT-TL1 and B2M was determined. Data is presented as average relative fold change±std. deviation from three independent observations. Statistical significance (p<0.05) is denoted by ‘*’ and was determined by one way ANOVA and Dunett's post hoc test.
# [2] = tested on: 11778 (G>A) mutant cybrid; assay: Mitochondrial copy number (MT-TL1/B2M ratio), mutant cybrids; assay type: cell-based; conditions: LHON mutant cells [11778(G>A)]; 24 hrs exposure
# Procedure: as §1
# Ndufs4 knockout mice = assay: Visual cliff test; assay type: in vivo, mouse; conditions: P21-P35 treatment; papaverine 20 mg/kg, zolpidem 20 mg/kg, rapamycin 8 mg/kg i.p.; idebenone 200 mg/kg oral
# [3] = tested on: innate immune/inflammatory response in Ndufs4 KO retina; assay: Retinal gene expression of innate immune and inflammatory markers after drug treatment (Example 3); assay type: in vivo, mouse; conditions: Ndufs4 KO mice; doses as in drug formulation
# Procedure: The graphs represent RNA expression of B2m (FIG. 21A), Tlr2 (FIG. 21B), Cxc110 (FIG. 21C), Cc15 (FIG. 21D), and Aif1 (FIG. 21E) in the wild type and Ndufs4 knockout retina. Bars represent mean delta Ct values normalized to housekeeping genes, Actb and Mapk1. Error bars represent standard error of the mean. Statistical significance was determined by two-tailed student's t test. * P<0.05, ** P<0.01, **** P<0.0001.
# (§2) Wild type and Ndufs4 knockout mice were placed in one of five groups: vehicle, papaverine (20 mg/kg), zolpidem (20 mg/kg), rapamycin (8 mg/kg), or idebenone (200 mg/kg). For papaverine, zolpidem, and rapamycin, drug was dissolved in DMSO which was diluted in 5% PEG-400/5% Tween-20 in PBS. Vehicle contained all components except for the drug. The solution was then sterile filtered and intraperitoneal injections were performed using a 30 gauge needle. Idebenone was administered as a jelly and consumed orally.
# We have previously shown that inflammatory gene expression of Aif1, Tlr2, B2m, Cc15, and Cxc110 are all elevated in the Ndufs4 KO mouse compared to wild type by more than 3-fold, indicating an inflammatory pathomechanism of mitochondrial blindness (Yu et al., Proc Natl Acad Sci USA, 2015, 112(42): E5689-98). […] Papaverine, zolpidem, rapamycin, and idebenone were administered to Ndufs4 KO mice to determine whether their protection of vision (FIG. 20) was through an anti-inflammatory mechanism of action. […] Thus, papaverine, zolpidem, and rapamycin appear to protect mitochondrial loss of vision through an antiinflammatory mechanism.
# Ndufs4 KO mice [4] = assay: Starburst amacrine cell count (ChAT staining of whole retina); assay type: in vivo, mouse; conditions: two weeks (P21-P35) intraperitoneal injections
# Procedure: 20× confocal images of whole retina stained with ChAT (marker of starburst amacrine cells) from wild type (FIG. 22A), Ndusf4 KO vehicle treated (FIG. 22B), Ndufs4 KO papaverine treated (FIG. 22C), Ndufs4 KO zolpidem treated (FIG. 22D), and Ndufs4 KO rapamycin treated (FIG. 22E) are shown.
# as §2
# Ndufs4 KO mice [5] = assay: Microglia activation (Iba1 staining of whole mount retinas); assay type: in vivo, mouse; conditions: two weeks (P21-P35) intraperitoneal treatment
# [6] = tested on: inflammatory genes in retinas of Ndufs4 KO mice; assay: qRT-PCR of inflammatory genes in retinas after rapamycin treatment (Example 1); assay type: in vivo, mouse; conditions: rapamycin 8 mg/kg intraperitoneally for 9 days
# Procedure: FIG. 6 depicts an experimental reversal of inflammatory gene induction by rapamycin. White bars, a mean increase in transcript level of 16/16 inflammatory markers was observed by qRT-PCR in retinas of Ndufs4 KO mice compared to wild type. […] Statistical significance determined by student's t test. * P<0.05, ** P<0.01.
# Rapamycin was dissolved in DMSO to 100 mg/mL. This was diluted in 5% PEG-400/5% Tween-20 (vehicle) to a concentration of 0.6 mg/mL, sterile filtered, and stored at −80 for long-term storage. Rapamycin treated mice were injected with 132 microliters/10 g body weight for a final dose of 8.0 mg/kg (Johnson et al., Science, 2013, 342, 1524-1528). Vehicle mice were injected with equal volume of PBS and DMSO lacking rapamycin. […]
# The change in PCR products as the reaction proceeded was monitored by SYBR green dye (Invitrogen, Grand Island, N.Y.). […] Quantification cycle (Cq) values obtained by the Lightcycler were analyzed by normalizing the values to the reference genes and delta Cq values were calculated to determine relative gene expression values compared to wild type. Delta delta Cq was also calculated to determine the fold change difference between Ndufs4 knockout and wild type. Significance, p<0.05 was determined using two sample independent student's t-test statistics with equal sample size and assuming equal variance.
# [7] = tested on: 11778(G>A) mutant cybrids; assay: Effect of rotenone on complex I-driven ATP synthesis in mutant vs control osteosarcoma cybrids; assay type: cell-based
# Excerpt: (§3) The data is presented as average+standard deviation from three independent experiments and single asterisk signifies the statistical significance (P<0.05) between the control and LHON mutant cells.
# Among the various LHON-associated mutations, 11778(G>A) mutation encoding ND4 subunit of mitochondrial complex I is the most prevalent and the most severe (Oostra et al., J Med Genet, 1994, 31, 280-286). It has been previously hypothesized that some external stress factors are responsible for the precipitation of vision loss in LHON (Chalmers et al., Biochimica et Biophysica Acta, 1999, 1410, 147-158). To understand the 11778(G>A) mutant mitochondrial functionality under stress, we evaluated the effect of a complex I inhibitor on complex I-driven ATP synthesis using an osteosarcoma cybrid model (FIG. 11A).
# Measurement of complex I-driven ATP synthesis: The cybrid cells were seeded at 50000 cells/well in 100 μL of medium, in a white, opaque-bottom, 96-well plate coated with poly-D-lysine (Corning) and was incubated at 37° C. overnight. […] After 2 hr incubation at 37° C., the medium from the plates were aspirated using an automatic plate washer (Biotek) and complex I-driven ATP synthesis was measured following the protocol of Yoshida and Fujikawa (Fujikawa et al., Biochemical and Biophysical Research Communications, 2010, 401, 538-543). […]
# [8] = tested on: 11778 (G>A) mutant lymphoblasts; assay: Effect of rotenone on complex I-driven ATP synthesis in lymphoblasts; assay type: cell-based; conditions: gender-matched lymphoblasts
# Procedure: as §3
# For the lymphoblasts, drug-treated cells were centrifuged and resuspended at a concentration of 2×10^6 cells/mL, in the permeabilization buffer containing activated streptolysin O (Sigma). After 10 min incubation at 4° C., the cells were centrifuged and resuspended in transfer buffer at the same concentration. The cells were then incubated at 37° C. for 10 min followed by centrifugation and resuspension in buffer A containing malate (5 mM, Sigma), sodium pyruvate (5 mM, Sigma) and high purity ADP (200 μM, Apollo Scientific). Subsequently, 50 μL of buffer A containing 100,000 cells were plated in each wells of a 96-well plate. After 20 min of incubation at the room temperature the complex I-driven ATP synthesis was measured by using ATP Bioluminescence Assay Kit CLS II (Roche) following manufacturer's instruction.
# [9] = 20 h; read-out: Fold change of ATP synthesis rate greater than 2x Median Absolution Deviation
compound,measurement,setting,value
antimycin A,mitochondrial ATP synthesis,[1],inhibited the mitochondrial ATP synthesis
"COc1ccc(OC)c(C(O)C(C)N)c1 (stereo not shown) [Methoxamine HCl, 2-amino-1-(2,5-dimethoxyphenyl)-1-propanol]",fold induction at 10 µM,LHON cybrids (11778 G>A); [9],1.4
"O=c1[nH]cc(F)c(=O)[nH]1 [Fluorouracil, 5-fluorouracil]",fold induction at 10 µM,LHON cybrids (11778 G>A); [9],1.1
CC[C@H]1/C=C/C=C/C[C@@H](C)[C@H](O)[C@@](C)(O)C(=O)[C@@H](C)[C@H](O)[C@@H](C)C(=O)[C@@H](C)[C@H](O)[C@@H](C)/C=C/C(=O)O[C@@H]2[C@H](C)[C@H](CC1)O[C@]1(CC[C@H](C)[C@H](C[C@@H](C)O)O1)[C@H]2C [oligomycin],mitochondrial ATP synthesis,[1],inhibited the mitochondrial ATP synthesis
Cc1ccc(-c2nc3ccc(C)cn3c2CC(=O)N(C)C)cc1 [zolpidem],fold induction at 10 µM,"LHON cybrids (11778 G>A); 20 h, read-out: Fold change of ATP synthesis rate greater than 2x Median Absolution Deviation",1.4
same,reversal of rotenone sensitivity of complex I-driven ATP synthesis,"LHON cybrids (11778 G>A); different concentrations of drug 22 h, then rotenone 0.03 μM 2 h",dose-dependently reversed the rotenone-sensitivity
same,ATP synthesis rate relative to vehicle-treated cells after rotenone,LHON cybrids (11778 G>A); zolpidem 30 μM pre-treatment; rotenone 0.03 μM,2 times
same,ATP synthesis rate compared to vehicle pre-treated cells,"LHON cybrids (11778 G>A); zolpidem 3, 10, and 30 μM pre-treatment; rotenone 0.03 μM",significantly higher ATP synthesis rate
same,ratio of mtDNA/nDNA,control healthy cybrid,did not significantly change the ratio of mtDNA/nDNA
same,ratio of mtDNA/nDNA,[2],did not significantly change the ratio of mtDNA/nDNA
same,visual function (median # edge detections),Ndufs4 knockout mice,visual function was preserved
same,"innate immune/inflammatory gene expression (B2m, Tlr2, Cxcl10, Ccl5, Aif1) in retina",[3],significantly inhibited a portion of the innate immune/inflammatory response
same,starburst amacrine cell loss,Ndufs4 KO mice [4],significant protection of startburst amacrine cells from apoptosis
same,microglia activation,Ndufs4 KO mice [5],decrease in microglia activation
"CN1CCc2cc3c(cc2[C@H]1[C@@H]1OC(=O)c2c1ccc1c2OCO1)OCO3 [bicuculine, bicuculline]",effect of GABAA antagonist on reversal of rotenone inhibition by zolpidem,"LHON cybrids (11778 G>A); zolpidem 30 μM and bicuculline 30 μM for 22 h, then rotenone 0.03 μM 2 h",no significant effect
O=S(=O)(NCCNC/C=C/c1ccc(Br)cc1)c1cccc2cnccc12 [H89],effect of H89 on rotenone rescue effect of zolpidem,LHON cybrids (11778 G>A); H89 3 μM with zolpidem 30 μM,reversed the rotenone rescue effect of zolpidem
same,effect of PKA inhibitor on papaverine's protection from rotenone,"LHON cybrids (11778 G>A); papaverine 30 μM and H89 3 μM for 22 h, then rotenone 0.03 μM 2 h",did not decrease papaverine's ability to protect from rotenone
O=C(O)CCC(=O)O [succinate],reversal of inhibitor-induced inhibition of ATP synthesis,"[1]; succinate 5 mM vs rotenone, ascorbate/TMPD vs antimycin",reversed
CO[C@H]1C[C@@H]2CC[C@@H](C)[C@@](O)(O2)C(=O)C(=O)N2CCCC[C@H]2C(=O)O[C@H]([C@H](C)C[C@@H]2CC[C@@H](O)[C@H](OC)C2)CC(=O)[C@H](C)/C=C(\C)[C@@H](O)[C@@H](OC)C(=O)[C@H](C)C[C@H](C)/C=C/C=C/C=C/1C [rapamycin],transcripts with inhibition of mean amplitude of induction of inflammatory genes,[6],16/16
C=C(C)[C@H]1Cc2c(ccc3c2O[C@@H]2COc4cc(OC)c(OC)cc4[C@@H]2C3=O)O1 [rotenone],mitochondrial ATP synthesis,[1],inhibited the mitochondrial ATP synthesis
same,"rotenone-dependent ATP synthesis defect across 11778, 3460 and 14484 mutant cybrids",[7]; 3 most common LHON mutations in cybrids,directly in proportion to the severity of the disease in humans
same,sensitivity of complex I-driven ATP synthesis to rotenone,"[7]; rotenone 0.001 μM-1 μM, 24 h, mutant clones HCT22, HFF3 vs control HGA2, H1959",highly sensitive to rotenone when compared to control
same,differential effect of rotenone on mutant vs control ATP synthesis,[8],clearly reproducible
"CN(Cc1cnc2nc(N)nc(N)c2n1)c1ccc(C(=O)N[C@@H](CCC(=O)O)C(=O)O)cc1 [Methotrexate, methotrexate]",fold induction at 10 µM,LHON cybrids (11778 G>A); [9],1.2
"C1N2CN3CN1CN(C2)C3 [Methenamine, methenamine]",fold induction at 10 µM,LHON cybrids (11778 G>A); [9],1.3
"Cn1cnc([N+](=O)[O-])c1Sc1ncnc2nc[nH]c12 [Azathioprine, azathioprine]",fold induction at 10 µM,LHON cybrids (11778 G>A); [9],1.4
COC1=C(OC)C(=O)C(CCCCCCCCCCO)=C(C)C1=O [idebenone],visual function (median # edge detections),Ndufs4 knockout mice,not significant
same,"innate immune/inflammatory gene expression (B2m, Tlr2, Cxcl10, Ccl5, Aif1) in retina",[3],significantly inhibited a portion of the innate immune/inflammatory response
